Results published in ChEMBL document CHEMBL1201862, “PubChem BioAssay data set” (2004).
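Dose response: 5 concentrations. Exposure: 48 h. Format: 96-well plates. Endpoint: linear interpolation; highest concentration if not reached. GI50 is the concentration that inhibits growth by half.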 Activity calls are given as the source filed them. Cut-off read from the data, not from the text of the source: active = GI50 up to about 1.1 µM and inactive = higher.

Experiments:
Test in all cases: growth of human tumour cells (NCI), 48 h
MOLT-4 = system: MOLT-4
SK-MEL-2 = system: SK-MEL-2
HCC 2998 = system: HCC 2998
TK-10 = system: TK-10
SNB-78 = system: SNB-78
HCT-116 = system: HCT-116
UACC-62 = system: UACC-62
EKVX = system: EKVX
UACC-257 = system: UACC-257
T47D = system: T47D
SW-620 = system: SW-620
A549 = system: A549
NCI-H460 = system: NCI-H460
OVCAR-3 = system: OVCAR-3
Hs-578T = system: Hs-578T
OVCAR-8 = system: OVCAR-8
HCT-15 = system: HCT-15
HOP-92 = system: HOP-92
CCRF-CEM = system: CCRF-CEM
PC-3 = system: PC-3

SMILES | GI50 (MOLT-4) | GI50 (SK-MEL-2) | GI50 (HCC 2998) | GI50 (TK-10) | GI50 (SNB-78) | GI50 (HCT-116) | GI50 (UACC-62) | GI50 (EKVX) | GI50 (UACC-257) | GI50 (T47D) | GI50 (SW-620) | GI50 (A549) | GI50 (NCI-H460) | GI50 (OVCAR-3) | GI50 (Hs-578T) | GI50 (OVCAR-8) | GI50 (HCT-15) [nM] | GI50 (HOP-92) | GI50 (CCRF-CEM) | GI50 (PC-3)
CN(C)CCCn1c2c3ccccc3ccc2c2oc(=O)c3ccccc3c21 | 986 nM (active) | 9230 nM (inactive) | 1220 nM (inactive) | 14200 nM (inactive) | 13600 nM (inactive) | 2480 nM (inactive) | 8630 nM (inactive) | 12700 nM (inactive) | 8650 nM (inactive) | 12100 nM (inactive) | 2000 nM (inactive) | 4530 nM (inactive) | 2050 nM (inactive) | 5480 nM (inactive) | > 36600 nM (inactive) | 3570 nM (inactive) | 1570 | 23800 nM (inactive) | 3310 nM (inactive) | –
O=C1/C(=C\c2ccccc2)CN(C(=O)CCN2CCCCC2)C/C1=C/c1ccccc1 | 231 nM (active) | 2000 nM (inactive) | 1440 nM (inactive) | 3930 nM (inactive) | 2540 nM (inactive) | 254 nM (active) | 1430 nM (inactive) | 3710 nM (inactive) | 1760 nM (inactive) | – | 167 nM (active) | 3730 nM (inactive) | 2350 nM (inactive) | 2280 nM (inactive) | 15.3 nM (active) | 869 nM (active) | 1090 | 3550 nM (inactive) | 198 nM (active) | 1240 nM (inactive)
O=C1c2cccc(NCCNCCO)c2C(=O)c2cccc(NCCNCCO)c21 | 443 nM (active) | 1280 nM (inactive) | 802 nM (active) | 3730 nM (inactive) | 1520 nM (inactive) | 430 nM (active) | 1810 nM (inactive) | 1780 nM (inactive) | 3040 nM (inactive) | 1690 nM (inactive) | 714 nM (active) | 1560 nM (inactive) | 1550 nM (inactive) | 1570 nM (inactive) | – | 989 nM (active) | 5280 | 507 nM (active) | 267 nM (active) | 733 nM (active)
O=C1c2cccc(NCCCNCCO)c2C(=O)c2cccc(NCCCNCCO)c21 | 769 nM (active) | 1850 nM (inactive) | 900 nM (active) | 3850 nM (inactive) | 3460 nM (inactive) | – | 2010 nM (inactive) | 2940 nM (inactive) | 6080 nM (inactive) | 3270 nM (inactive) | 2400 nM (inactive) | 2000 nM (inactive) | 1680 nM (inactive) | 3050 nM (inactive) | 627 nM (active) | 2160 nM (inactive) | 8990 | 1550 nM (inactive) | 701 nM (active) | 2410 nM (inactive)
